Reference: patent publication US20250312469A1 (CANGET BIOTEKPHARMA, priority 2024, published 2025)
Where two headings read alike, the source gives them in different places.

[1] = female dogs, Group 4, 4/4 mg/kg/dose, Day 15
[2] = female dogs, Group 4, 4/4 mg/kg/dose, Day −4

Protocol: Animals were approximately 7 to 8 months of age with body weights ranging from 5.9 kg to 8.0 kg in females and 7.6 kg to 9.3 kg in males at dosing initiation.
Animals were randomly assigned to groups by Provantis based on body weight.
Detailed observations were conducted once during pretest for all animals (including spare animals), once prior to dosing on Day 1 for all study animals, and once weekly thereafter during the dosing phase (at 6+0.5 hours postdose). Detailed observations were also conducted once on the day of scheduled necropsies.
Parameters evaluated during the study included morbidity/mortality, clinical observations, body weights, food consumption, clinical pathology (hematology, serum chemistry, coagulation, and urinalysis), gross pathology, organ weights, and histopathological evaluation.

CCC1(O)C(=O)OCc2c1cc1n(c2=O)Cc2cc3cc4c(cc3nc2-1)OCO4 (stereo not shown) [FL118]
RET count percentage, max decrease, male (Day 15 vs controls): 30.65%
leukocyte (WBC) counts, max decrease, male (Day 15 vs controls): 14.33%
neutrophils counts (#NEUT), max decrease, male (Day 15 vs controls): 18.67%
reticulocyte (RET) count absolute, max decrease, male (Day 15 vs controls): 33.4%
clinical signs (all treatment groups): abnormal stool
Cl (chloride), % Diff versus vehicle Group 1 (female dogs, Group 2, 2.5/[…], Day 15): 0%
Cl (chloride), % Diff versus vehicle Group 1 (female dogs, Group 2, 2.5/[…], Day −4 (pre-dose)): 0%
Cl (chloride), % Diff versus vehicle Group 1 (female dogs, Group 3, 3.3/[…], Day 15): −1%
Cl (chloride), % Diff versus vehicle Group 1 (female dogs, Group 3, 3.3/[…], Day −4 (pre-dose)): −1%
#EOS (eosinophils, absolute) % Diff vs Group 1 [1]: 6.45%
#LYMP (lymphocytes, absolute) % Diff vs Group 1 [1]: −12.61%
#NEUT % Diff [1]: 32.40%
#RET % Diff [1]: 61.4%
#RET Mean [1]: 60.5 10^9/L
% BASO (basophils, percent) % Diff vs Group 1 [1]: −46.7%
% BASO, basophils, percent, Mean [1]: 0.3%
% EOS (eosinophils, percent) % Diff vs Group 1 [1]: −5.6%
% EOS, eosinophils, percent, Mean [1]: 2.2%
% LYMP (lymphocytes, percent) % Diff vs Group 1 [1]: −21.4%
% LYMP, lymphocytes, percent, Mean [1]: 27.8%
% MONO (monocytes, percent) % Diff vs Group 1 [1]: −18.3%
% MONO, monocytes, percent, Mean [1]: 5.5%
% NEUT % Diff [1]: 17.0%
% NEUT Mean [1]: 63.9%
% RET % Diff [1]: 47.72%
ALB (albumin), % Diff versus vehicle Group 1 [1]: −1.6%
ALP (alkaline phosphatase), % Diff versus vehicle Group 1 [1]: −19%
ALP, alkaline phosphatase, Mean [1]: 110 U/L
ALT (alanine aminotransferase), % Diff versus vehicle Group 1 [1]: 24%
ALT, alanine aminotransferase, Mean [1]: 36 U/L
AST (aspartate aminotransferase), % Diff versus vehicle Group 1 [1]: −7%
AST, aspartate aminotransferase, Mean [1]: 29 U/L
BIL-T, total bilirubin, Mean [1]: 1.60 µmol/L
CK (creatine kinase), % Diff versus vehicle Group 1 [1]: −32%
CK, creatine kinase, Mean [1]: 200 U/L
CRE (creatinine), % Diff versus vehicle Group 1 [1]: 12%
CRE, creatinine, Mean [1]: 54 µmol/L
Ca, calcium, Mean [1]: 2.53 mmol/L
Cl (chloride), % Diff versus vehicle Group 1 [1]: 1%
GGT (gamma-glutamyltransferase), % Diff versus vehicle Group 1 [1]: 0%
GGT (gamma-glutamyltransferase), Mean [1]: 3 U/L
HCT % Diff [1]: 9.2%
HCT Mean [1]: 43.8%
HGB % Diff [1]: 9.5%
HGB Mean [1]: 14.8 g/dL
K (potassium), % Diff versus vehicle Group 1 [1]: −8.3%
MCH Mean [1]: 23.6 pg
MCHC % Diff [1]: −0.1%
MCHC Mean [1]: 33.9 g/dL
MCV % Diff [1]: −1.6%
MCV Mean [1]: 69.6 fL
MPV (mean platelet volume) % Diff vs Group 1 [1]: −6.3%
MPV, mean platelet volume, Mean [1]: 12.3 fL
P (inorganic phosphorus), % Diff versus vehicle Group 1 [1]: −11.74%
PLT (platelet count) % Diff vs Group 1 [1]: −12%
RBC % Diff [1]: 11.06%
RDW % Diff [1]: −2.9%
RDW Mean [1]: 12.5%
TCHO (total cholesterol), % Diff versus vehicle Group 1 [1]: −6.71%
TCHO, total cholesterol, Mean [1]: 3.52 mmol/L
TG (triglyceride), % Diff versus vehicle Group 1 [1]: −27.70%
TP (total protein), % Diff versus vehicle Group 1 [1]: 3.5%
TP, total protein, Mean [1]: 57.5 g/L
UREA (urea), % Diff versus vehicle Group 1 [1]: −3.71%
WBC % Diff [1]: 12.58%
sGLU (glucose), % Diff versus vehicle Group 1 [1]: 7.41%
sGLU, glucose, Mean [1]: 4.59 mmol/L
TG, triglyceride, Mean (female dogs, Group 4, 4/4 mg/kg/dose, Day 15, * p ≤ 0.05): 0.36* mmol/L
#BASO (basophils, absolute) % Diff vs Group 1 [2]: 0.00%
#EOS (eosinophils, absolute) % Diff vs Group 1 [2]: 18.46%
#LYMP (lymphocytes, absolute) % Diff vs Group 1 [2]: −9.70%
#MONO (monocytes, absolute) % Diff vs Group 1 [2]: 6.36%
#NEUT % Diff [2]: 45.57%
#RET % Diff [2]: −2.5%
% BASO (basophils, percent) % Diff vs Group 1 [2]: −25.0%
% BASO, basophils, percent, Mean [2]: 0.2%
% EOS (eosinophils, percent) % Diff vs Group 1 [2]: 4.5%
% EOS, eosinophils, percent, Mean [2]: 2.3%
% LYMP (lymphocytes, percent) % Diff vs Group 1 [2]: −25.5%
% LYMP, lymphocytes, percent, Mean [2]: 24.4%
% MONO (monocytes, percent) % Diff vs Group 1 [2]: −14.4%
% MONO, monocytes, percent, Mean [2]: 6.9%
% NEUT % Diff [2]: 17.0%
% RET Mean [2]: 0.71%
HCT % Diff [2]: 5.4%
HCT Mean [2]: 44.9%
HGB % Diff [2]: 7.3%
HGB Mean [2]: 15.1 g/dL
